ChEMBL document CHEMBL4257522, “Synthesis and preliminary anti-inflammatory and anti-bacterial evaluation of some diflunisal aza-analogs” (Medchemcomm, 2018)
Calls of active or inactive are those of the source. The rule behind the calls is not given here.

What was measured:
Staphylococcus aureus [1] = assay: Potentiation of methicillin-induced antibacterial activity against Staphylococcus aureus ATCC 33592 assessed as minimum modulatory concentration up to 32 uM measured after 16 hrs in presence of MIC/4 methicillin; type: functional; conditions: ATCC 33592, 16 h, read-out: MEC
Enterococcus faecium [2] = assay: Toxicity in Enterococcus faecium ATCC 700221 up to 32 uM measured after 16 hrs; type: organism-based; conditions: in vitro
Streptococcus pyogenes [3] = assay: Potentiation of ciprofloxacin-induced antibacterial activity against Streptococcus pyogenes ATCC 14289 assessed as minimum modulatory concentration up to 32 uM measured after 16 hrs in presence of MIC/4 ciprofloxacin; type: functional; conditions: ATCC 14289, 16 h, read-out: MEC
Streptococcus pyogenes [4] = assay: Potentiation of methicillin-induced antibacterial activity against Streptococcus pyogenes ATCC 14289 assessed as minimum modulatory concentration up to 32 uM measured after 16 hrs in presence of MIC/4 methicillin; type: functional; conditions: ATCC 14289, 16 h, read-out: MEC
Pseudomonas aeruginosa [5] = assay: Potentiation of erythromycin-induced antibacterial activity against Pseudomonas aeruginosa ATCC BAA-2108 assessed as minimum modulatory concentration up to 32 uM measured after 16 hrs in presence of MIC/4 erythromycin; type: functional; conditions: ATCC BAA-2108, 16 h, read-out: MEC
Enterococcus faecium [6] = assay: Potentiation of geneticin-induced antibacterial activity against Enterococcus faecium ATCC 700221 assessed as minimum modulatory concentration up to 32 uM measured after 16 hrs in presence of MIC/4 geneticin; type: functional; conditions: ATCC 700221, 16 h, read-out: MEC
Enterococcus faecium [7] = assay: Potentiation of methicillin-induced antibacterial activity against Enterococcus faecium ATCC 700221 assessed as minimum modulatory concentration up to 32 uM measured after 16 hrs in presence of MIC/4 methicillin; type: functional; conditions: ATCC 700221, 16 h, read-out: MEC
Macrophage cell line [8] = assay: Antiinflammatory activity in human PBMC-differentiated macrophages assessed as inhibition of LPS-induced prostaglandin production at 0.01 to 10 uM measured after 24 hrs by ELISA; type: functional, cell-based
Escherichia coli [9] = assay: Potentiation of geneticin-induced antibacterial activity against Escherichia coli ATCC 43894 assessed as minimum modulatory concentration up to 32 uM measured after 16 hrs in presence of MIC/4 geneticin; type: functional; conditions: ATCC 43894, 16 h, read-out: MEC
Klebsiella pneumoniae [10] = assay: Potentiation of erythromycin-induced antibacterial activity against Klebsiella pneumoniae ATCC 13883 assessed as minimum modulatory concentration up to 32 uM measured after 16 hrs in presence of MIC/4 erythromycin; type: functional; conditions: ATCC 13883, 16 h, read-out: MEC
Escherichia coli [11] = assay: Potentiation of ciprofloxacin-induced antibacterial activity against Escherichia coli ATCC 43894 assessed as minimum modulatory concentration up to 32 uM measured after 16 hrs in presence of MIC/4 ciprofloxacin; type: functional; conditions: ATCC 43894, 16 h, read-out: MEC
Escherichia coli [12] = assay: Potentiation of tetracycline-induced antibacterial activity against Escherichia coli ATCC 43894 assessed as minimum modulatory concentration up to 32 uM measured after 16 hrs in presence of MIC/4 tetracycline; type: functional; conditions: ATCC 43894, 16 h, read-out: MEC
Klebsiella pneumoniae [13] = assay: Potentiation of methicillin-induced antibacterial activity against Klebsiella pneumoniae ATCC 13883 assessed as minimum modulatory concentration up to 32 uM measured after 16 hrs in presence of MIC/4 methicillin; type: functional; conditions: ATCC 13883, 16 h, read-out: MEC
Escherichia coli [14] = assay: Potentiation of methicillin-induced antibacterial activity against Escherichia coli ATCC 43894 assessed as minimum modulatory concentration up to 32 uM measured after 16 hrs in presence of MIC/4 methicillin; type: functional; conditions: ATCC 43894, 16 h, read-out: MEC
Pseudomonas aeruginosa [15] = assay: Potentiation of methicillin-induced antibacterial activity against Pseudomonas aeruginosa ATCC BAA-2108 assessed as minimum modulatory concentration up to 32 uM measured after 16 hrs in presence of MIC/4 methicillin; type: functional; conditions: ATCC BAA-2108, 16 h, read-out: MEC
Streptococcus pyogenes [16] = assay: Potentiation of erythromycin-induced antibacterial activity against Streptococcus pyogenes ATCC 14289 assessed as minimum modulatory concentration up to 32 uM measured after 16 hrs in presence of MIC/4 erythromycin; type: functional; conditions: ATCC 14289, 16 h, read-out: MEC
Pseudomonas aeruginosa [17] = assay: Toxicity in Pseudomonas aeruginosa ATCC BAA-2108 up to 32 uM measured after 16 hrs; type: organism-based; conditions: in vitro
Macrophage cell line [18] = assay: Induction of TNFalpha production in human PBMC-differentiated macrophages after 24 hrs by ELISA; type: cell-based
Klebsiella pneumoniae [19] = assay: Toxicity in Klebsiella pneumoniae ATCC 13883 up to 32 uM measured after 16 hrs; type: organism-based
Enterococcus faecium [20] = assay: Potentiation of ciprofloxacin-induced antibacterial activity against Enterococcus faecium ATCC 700221 assessed as minimum modulatory concentration up to 32 uM measured after 16 hrs in presence of MIC/4 ciprofloxacin; type: functional; conditions: ATCC 700221, 16 h, read-out: MEC
Escherichia coli [21] = assay: Toxicity in Escherichia coli ATCC 43894 up to 32 uM measured after 16 hrs; type: organism-based
Staphylococcus aureus [22] = assay: Potentiation of erythromycin-induced antibacterial activity against Staphylococcus aureus ATCC 33592 assessed as minimum modulatory concentration up to 32 uM measured after 16 hrs in presence of MIC/4 erythromycin; type: functional; conditions: ATCC 33592, 16 h, read-out: MEC
Klebsiella pneumoniae [23] = assay: Potentiation of tetracycline-induced antibacterial activity against Klebsiella pneumoniae ATCC 13883 assessed as minimum modulatory concentration up to 32 uM measured after 16 hrs in presence of MIC/4 tetracycline; type: functional; conditions: ATCC 13883, 16 h, read-out: MEC
Macrophage cell line [24] = assay: Induction of IL-8 production in human PBMC-differentiated macrophages after 24 hrs by ELISA; type: cell-based
Macrophage cell line [25] = assay: Induction of prostaglandin production in human PBMC-differentiated macrophages after 24 hrs by ELISA; type: cell-based
Escherichia coli [26] = assay: Potentiation of erythromycin-induced antibacterial activity against Escherichia coli ATCC 43894 assessed as minimum modulatory concentration up to 32 uM measured after 16 hrs in presence of MIC/4 erythromycin; type: functional; conditions: ATCC 43894, 16 h, read-out: MEC
Streptococcus pyogenes [27] = assay: Potentiation of tetracycline-induced antibacterial activity against Streptococcus pyogenes ATCC 14289 assessed as minimum modulatory concentration up to 32 uM measured after 16 hrs in presence of MIC/4 tetracycline; type: functional; conditions: ATCC 14289, 16 h, read-out: MEC
Staphylococcus aureus [28] = assay: Potentiation of geneticin-induced antibacterial activity against Staphylococcus aureus ATCC 33592 assessed as minimum modulatory concentration up to 32 uM measured after 16 hrs in presence of MIC/4 geneticin; type: functional; conditions: ATCC 33592, 16 h, read-out: MEC
Klebsiella pneumoniae [29] = assay: Potentiation of geneticin-induced antibacterial activity against Klebsiella pneumoniae ATCC 13883 assessed as minimum modulatory concentration up to 32 uM measured after 16 hrs in presence of MIC/4 geneticin; type: functional; conditions: ATCC 13883, 16 h, read-out: MEC
Pseudomonas aeruginosa [30] = assay: Potentiation of ciprofloxacin-induced antibacterial activity against Pseudomonas aeruginosa ATCC BAA-2108 assessed as minimum modulatory concentration up to 32 uM measured after 16 hrs in presence of MIC/4 ciprofloxacin; type: functional; conditions: ATCC BAA-2108, 16 h, read-out: MEC
Macrophage cell line [31] = assay: Induction of IL-1beta production in human PBMC-differentiated macrophages after 24 hrs by ELISA; type: cell-based
Klebsiella pneumoniae [32] = assay: Potentiation of ciprofloxacin-induced antibacterial activity against Klebsiella pneumoniae ATCC 13883 assessed as minimum modulatory concentration up to 32 uM measured after 16 hrs in presence of MIC/4 ciprofloxacin; type: functional; conditions: ATCC 13883, 16 h, read-out: MEC
Pseudomonas aeruginosa [33] = assay: Potentiation of geneticin-induced antibacterial activity against Pseudomonas aeruginosa ATCC BAA-2108 assessed as minimum modulatory concentration up to 32 uM measured after 16 hrs in presence of MIC/4 geneticin; type: functional; conditions: ATCC BAA-2108, 16 h, read-out: MEC

SMILES | minimal effective concentration (Staphylococcus aureus [1]) | Activity (Enterococcus faecium [2]) | minimal effective concentration (Streptococcus pyogenes [3]) | minimal effective concentration (Streptococcus pyogenes [4]) | minimal effective concentration (Pseudomonas aeruginosa [5]) | minimal effective concentration (Enterococcus faecium [6]) | minimal effective concentration (Enterococcus faecium [7]) | inhibition (Macrophage cell line [8]) | minimal effective concentration (Escherichia coli [9]) | minimal effective concentration (Klebsiella pneumoniae [10]) | minimal effective concentration (Escherichia coli [11]) | minimal effective concentration (Escherichia coli [12]) | minimal effective concentration (Klebsiella pneumoniae [13]) | minimal effective concentration (Escherichia coli [14]) | minimal effective concentration (Pseudomonas aeruginosa [15]) | minimal effective concentration (Streptococcus pyogenes [16]) | Activity (Pseudomonas aeruginosa [17]) | Activity (Macrophage cell line [18]) | Activity (Klebsiella pneumoniae [19]) | minimal effective concentration (Enterococcus faecium [20]) | other results
O=C(O)c1cc(O)c(-c2ccccc2)nc1-c1ccccc1 | 4 µM | Non-Toxic | > 32 µM | 1 µM | 8 µM | 4 µM | 1 µM | inactive | > 32 µM | > 32 µM | > 32 µM | > 32 µM | > 32 µM | > 32 µM | 16 µM | 8 µM | Non-Toxic | Non-Toxic | Non-Toxic | > 32 µM | Activity (Escherichia coli [21]): Non-Toxic; minimal effective concentration (Staphylococcus aureus [22]): 8 µM; minimal effective concentration (Klebsiella pneumoniae [23]): > 32 µM; Activity (Macrophage cell line [24]): Non-Toxic; Activity (Macrophage cell line [25]): Non-Toxic; minimal effective concentration (Escherichia coli [26]): > 32 µM; minimal effective concentration (Streptococcus pyogenes [27]): 4 µM; minimal effective concentration (Staphylococcus aureus [28]): 8 µM; minimal effective concentration (Klebsiella pneumoniae [29]): > 32 µM; minimal effective concentration (Pseudomonas aeruginosa [30]): 4 µM; Activity (Macrophage cell line [31]): Non-Toxic; minimal effective concentration (Klebsiella pneumoniae [32]): > 32 µM; minimal effective concentration (Pseudomonas aeruginosa [33]): > 32 µM
Cc1cc(C(=O)O)c(O)c(Cc2ccccc2)n1 | > 32 µM | Non-Toxic | > 32 µM | > 32 µM | > 32 µM | > 32 µM | > 32 µM | inactive | > 32 µM | > 32 µM | > 32 µM | > 32 µM | > 32 µM | > 32 µM | > 32 µM | > 32 µM | Non-Toxic | Non-Toxic | Non-Toxic | > 32 µM | Activity (Escherichia coli [21]): Non-Toxic; minimal effective concentration (Staphylococcus aureus [22]): > 32 µM; minimal effective concentration (Klebsiella pneumoniae [23]): > 32 µM; Activity (Macrophage cell line [24]): Non-Toxic; Activity (Macrophage cell line [25]): Non-Toxic; minimal effective concentration (Escherichia coli [26]): > 32 µM; minimal effective concentration (Streptococcus pyogenes [27]): 16 µM; minimal effective concentration (Staphylococcus aureus [28]): > 32 µM; minimal effective concentration (Klebsiella pneumoniae [29]): > 32 µM; minimal effective concentration (Pseudomonas aeruginosa [30]): > 32 µM; Activity (Macrophage cell line [31]): Non-Toxic; minimal effective concentration (Klebsiella pneumoniae [32]): > 32 µM; minimal effective concentration (Pseudomonas aeruginosa [33]): > 32 µM
